From article PMC6600181, “Reversal of MK-801-Induced Disruptions in Social Interactions and Working Memory with Simultaneous Administration of LY487379 and VU152100 in Mice” (International Journal of Molecular Sciences, 2019)

Tests used:
MK-801-treated mice [1] = experiment: Novel object recognition test (MK-801-induced disruptions); format: in vivo, mice (male CD1); details: for treatment of deficits in novel object recognition induced by prolonged MK-801: compounds acutely 24 h later, 30 min before test, LY487379 0.1, 0.5, 1 mg/kg, VU152100 0.1, 0.25, 1 mg/kg; for prevention of MK-801-induced disruptions in object recognition: acute, 30 min before acute MK-801
Procedure: (§1) Schedules of administration are presented graphically in Figure 1. […] Different vehicles were used throughout the study: (1) 0.9% NaCl, (2) 10% Tween 80 or (3) 10% Tween 80 containing 2% DMSO. Vehicles were administered to all animals (e.g., control mice, MK-801-treated mice) in the same schedule as drugs were administered to the drug-treated appropriate groups of mice.
(§2) Male CD1 mice (Charles River, Germany) weighing 20–25 g at the time of arrival were used in behavioural experiments. Animals were kept in standard laboratory cages T3 (265 × 420 × 180 mm, with an area of 825 cm^2), grouped at 10 mice per cage. Animals were kept under standard laboratory conditions (12:12 light:dark cycle, 21–22 °C) with free access to food and water. Animal welfare has been regularly controlled by a veterinarian and animal welfare committee. After 3–4 weeks of acclimatization and handling, the experiments began. Experimental groups consisted of 8 to 10 animals, depending on the procedure. Drugs were administered intraperitoneally (i.p.) at a volume of 10 mL/kg. Experimental assessments were performed by an observer who was blinded to treatment conditions. All procedures described herein were conducted in accordance with the European Communities Council Directive of 22 September 2010 (2010/63/EU) and Polish legislation acts concerning animal experimentation and were approved by the II Local Ethics Committee by the Institute of Pharmacology, Polish Academy of Sciences in Krakow (18/2019, 21.01.2019).
This procedure was adapted from Nilsson et al. and performed as described in a variety of our previous papers. Habituation, training and test trials were performed in a black plastic rectangular arena (40 × 30 × 35 cm) illuminated with a light intensity of 335 lux. During the habituation trial (2 consecutive days), each animal was allowed to explore the arena for 10 min. The next day, during the training trial (T1), mice were placed in the arena and were presented with two identical objects (red glass cylinder; 6.5 cm in diameter and 4.5 cm high) for 5 min. After 1 h, animals were placed back into the arena for a 5 min test trial, during which one of the previously presented familiar objects was replaced with a novel object (a transparent glass elongated sphere-like object with an orange cap; 5.5 cm in diameter and 8.5 cm high). Time spent exploring (i.e., sniffing or touching) the familiar (Tfamiliar) and novel (Tnovel) objects was measured by a trained observer, and the recognition index [%] was calculated for each mouse [(Tnovel – Tfamiliar)/(Tfamiliar + Tnovel)] * 100.

MK-801-treated mice [2] = experiment: Social interaction test (MK-801-induced disruptions); format: in vivo, mice (male CD1); details: for treatment of deficits in social interactions induced by prolonged MK-801: compounds acutely 24 h later, 30 min before test, LY487379 0.25, 0.5, 1 mg/kg, VU152100 0.1, 0.25, 5 mg/kg; for prevention of MK-801-induced deficits in social interactions: acute, 30 min before acute MK-801
Procedure: as §1, §2
This procedure was adapted from de Moura Linck et al. and performed as described in our previous papers. Habituation and test trials were performed in a black plastic rectangular arena (40 × 30 × 35 cm) illuminated with a light intensity of 335 lux. During the habituation trial (2 consecutive days), each animal was allowed to explore the arena for 10 min. The test trial was conducted the following day, during which body-weight-matched mice (± 10% difference) from two different cages were placed into the arena for 10 min. Social interactions between the two mice were determined based on the total time spent participating in social behaviours, such as sniffing, genital investigation and chasing.

MK-801-treated mice [3] = tested on: MK-801-treated mice; design: method as in PMID 30054675; details: acute MK-801 model; cited from earlier work
MK-801-treated mice [4] = tested on: MK-801-treated mice; design: method as in PMID 30054675; details: acute MK-801 model; cited from earlier work; remark: listed apart in the source

Structure (SMILES) | treatment of deficits in novel object recognition induced by prolonged MK-801 (MK-801-treated mice [1]; MK-801 0.3 mg/kg for 7 days) | effect on learning abilities when given alone (MK-801-treated mice [1]; compound alone, without MK-801) | prevention of MK-801-induced disruptions in object recognition (MK-801-treated mice [1]; dose 0.5 mg/kg i.p.) | prevention of MK-801-induced disruptions in object recognition (MK-801-treated mice [1]; doses of 1 and 3 mg/kg i.p.) | treatment of deficits in social interactions induced by prolonged MK-801 (MK-801-treated mice [2]; MK-801 0.3 mg/kg for 7 days) | effect on social behaviour when given alone (MK-801-treated mice [2]; compound alone, without MK-801) | prevention of MK-801-induced deficits in social interactions (MK-801-treated mice [2]; dose 0.5 mg/kg i.p.) | prevention of MK-801-induced deficits in social interactions (MK-801-treated mice [2]; doses of 1 and 3 mg/kg i.p.) | induction of deficits in novel object recognition (MK-801-treated mice [1]; MK-801 0.3 mg/kg for 7 days, observed 24 h after the last administration) | induction of deficits in social interactions (MK-801-treated mice [2]; MK-801 0.3 mg/kg for 7 days, observed 24 h after the last injection) | sub-effective dose in novel object recognition (MK-801-treated mice [3]) [mg/kg] | sub-effective dose in social interaction (MK-801-treated mice [4]) [mg/kg]
COc1ccccc1Oc1ccc(N(Cc2cccnc2)S(=O)(=O)CC(F)(F)F)cc1 [LY487379] | treated the MK-801-induced deficits at all administered doses | no effect on learning abilities | ineffective | prevented MK-801-induced disruptions in object recognition | treated MK-801-induced deficits at all administered doses | no effect on social behaviour | ineffective | prevented the MK-801-induced deficits | – | – | – | –
C[C@]12N[C@H](Cc3ccccc31)c1ccccc12 [MK-801] | – | – | – | – | – | – | – | – | induced deficits in the novel object recognition paradigm | induced deficits in social interactions | – | –
COc1ccc(CNC(=O)c2sc3nc(C)cc(C)c3c2N)cc1 [VU152100] | treated the MK-801-induced deficits at all administered doses | – | – | – | treated MK-801-induced deficits at all administered doses | – | – | – | – | – | 0.25 | 0.5
